Reference: patent US8163753B2, “2,3-dihydro-6-nitroimidazo (2,1-b) oxazole compounds for the treatment of tuberculosis” (priority 2003, dated 2012)
≈ marks a conversion by molar mass, not a printed value.

Columns and labels:
[1] = system: Mycobacterium tuberculosis (H37Rv strain); conditions: in vitro, literature report; cited from earlier work
M. intracellulare = conditions: used at 250 μg/ml or less; cited from earlier work
M. fortuitum = conditions: used at 250 μg/ml or less; cited from earlier work
M. avium = conditions: used at 250 μg/ml or less; cited from earlier work
M. tuberculosis Kurono = test: Antibacterial test, agar-plate dilution method (minimum inhibitory concentration), Test Example 2; format: cell-based; conditions: 7H11 agar medium, 37° C. for 14 days; for MIC: Mycobacterium tuberculosis, 336 h

Row | Compound | melting point | further results
1 | C[C@]1(COc2ccc(N3CCC(COC4CCCCO4)CC3)cc2)Cn2cc([N+](=O)[O-])nc2O1 (stereo partly drawn) | 217.6 to 218.6 °C | –
2 | C[C@]1(COc2ccc(N3CCC(COc4ccc(-c5ccccc5)cc4)CC3)cc2)Cn2cc([N+](=O)[O-])nc2O1 | 245 °C (dec.) | –
3 | C[C@]1(COc2ccc3nc(Cl)ccc3c2)Cn2cc([N+](=O)[O-])nc2O1 | 182.2 to 184.7 °C | –
4 | CN(Cc1cc(C(F)(F)F)cc(C(F)(F)F)c1)C1CCN(c2ccc(OC[C@@]3(C)Cn4cc([N+](=O)[O-])nc4O3)cc2)CC1 | 193.8 to 195.3 °C | –
5 | C[C@]1(COc2ccc(-c3ccc(N4CCN(Cc5ccc(Cl)cc5)CC4)cc3)cc2)Cn2cc([N+](=O)[O-])nc2O1 | 247.8 to 248.5 °C (dec.) | –
6 | CC1(COc2ccc(N3CCC(Cc4ccc(Cl)c(Cl)c4)CC3)cc2)Cn2cc([N+](=O)[O-])nc2O1 (stereo not drawn) | 191.4 to 192.1 °C | –
7 | O=[N+]([O-])c1cn2c(n1)O[C@@H](COc1ccc(N3CCC(COCc4ccc(OC(F)(F)F)cc4)CC3)cc1)C2 | 140.4 to 141.7 °C | –
8 | CCC1Cn2cc([N+](=O)[O-])nc2O1 (stereo not drawn) [CGI-17341] | – | bactericidal action to Mycobacterium tuberculosis (H37Rv strain) [1]: has a bactericidal action; activity to M. intracellulare (M. intracellulare): does not have the activity; activity to M. fortuitum (M. fortuitum): does not have the activity; activity to M. avium (M. avium): does not have the activity
9 | C[C@]1(COc2ccc3nc(N4CCN(Cc5ccc(OC(F)(F)F)cc5)CC4)sc3c2)Cn2cc([N+](=O)[O-])nc2O1 [Example 1, (R)-2-methyl-6-nitro-2-(2-(4-(4-trifluoromethoxybenzyl)-piperazine-1-yl)benzothiazole-6-yloxymethyl)-2,3-dihydroimidazo[2,1-b]oxazole] | 205.6 to 207.4 °C | MIC (M. tuberculosis Kurono): 0.2 µg/mL (≈ 0.339 µM)
10 | C[C@]1(COc2ccc(N3CCC(CC=Cc4ccc(C(F)(F)F)cc4)CC3)cc2)Cn2cc([N+](=O)[O-])nc2O1 [Example 8, (R)-2-methyl-6-nitro-2-(4-(4-(3-(4-trifluoromethyphenyl)-2-propenyl)piperidine-1-yl)phenoxymethyl)-2,3-dihydroimidazo[2,1-b]oxazole] | – | Minimum Inhibitory Concentration (M. tuberculosis Kurono): 0.006 µg/mL
11 | C[C@]1(COc2ccc(N3CCN(CCOc4ccc(OC(F)(F)F)cc4)CC3)cc2)Cn2cc([N+](=O)[O-])nc2O1 [Example 9, (R)-2-methyl-6-nitro-2-(4-(4-(2-(4-trifluoromethoxyphenoxy)ethyl)piperazine-1-yl)phenoxymethyl)-2,3-dihydroimidazo[2,1-b]oxazole] | – | MIC (M. tuberculosis Kurono): 0.012 µg/mL (≈ 0.0213 µM)
